Experimental data from publication PMC13289212, “HIVIL: A human in vitro inflammatory liver model recapitulates immune-associated drug effects with high predictivity” (NAM journal, 2025).

Assays:
Assay type in all cases: cell-based, human
IL-6 [1] = experiment: IL-6 ELISA in HIVIL (iKCs co-cultured with iHeps, LPS, 48 hr); settings: HIVIL
IL-6 [2] = experiment: as above; settings: HIVIL co-treated with TVX and LPS
iHeps = experiment: RNA-Seq of iHeps from mono-culture and HIVIL
Text: Subsequent analyses compared gene fold-changes of treated samples against their respective vehicle controls: "m" and "c" indicate mono- and co-culture, and "–" and "+" represent the absence or presence of LPS. […] However, this is only applicable for co-cultures where downstream effects can be traced back to cytokine changes, and not in monocultures where significant upstream cytokine changes are not observed.
RNA extraction was done using TRIzol and analyzed on a Tapestation 4200 to determine RNA Integrity Number (RIN). Only samples with RIN > 8 were sequenced. Illumina Stranded mRNA multiplexing was done with unique 96 dual indices, and all samples sequenced on the same lane of NovaSeq 6000 S4 flowcell. Data normalization was performed using DESeq2 v1.32.0 ([Love et al., 2014]) on the R programming language v4.1.0 ([R Core Team, 2021]; [R Team, 2021]). Gene enrichment analysis was done with fgsea v1.18 ([Korotkevich et al., 2021]) with gene sets downloaded from MSigDB and KEGG pathway visualization done via pathview v1.32 ([Kanehisa et al., 2021]; [Luo and Brouwer, 2013]). Other plots were produced using ggplot2 v3.3.5 and scatterplot3d v0.3-41 ([Ligges and Maechler, 2003]). The RNA-Seq dataset has been deposited in NCBI under accession number GSE189320.
RNA seq and analysis: After 48 hr of drug treatment, iHeps cultured in mono-culture and HIVIL were both subjected to TrypLE^TM dissociation, and subsequently sorted with magnetic separation with the CD163 Microbead kit (Miltenyi Biotec, Bergisch Gladbach, Germany) to obtain only iHeps. Flow-through was collected, pelleted down and snap-frozen in liquid nitrogen, before storage at -80°C. Lysates were sent to the Genome Research Informatics and Data Science platform (Agency for Science, Technology and Research, Singapore). RNA extraction was done using TRIzol and analyzed on a Tapestation 4200 to determine RNA Integrity Number (RIN). All sequenced samples included for further analysis had RIN > 8. Illumina Stranded mRNA multiplexing was done with unique 96 dual indices, and all samples sequenced on the same lane of NovaSeq 6000 S4 flowcell. Sequenced reads were trimmed for adaptor sequence using Trim Galore v0.6.4, then aligned to human genome build GRCh38 using STAR_2.6.1d. Aligned reads are summarized into count matrices using featureCounts v1.6.4 with the gene annotation file from GENCODE v37.
Data normalization was performed using DESeq2 v1.32.0 (Love et al. 2014) on the R programming language v4.1.0 (Core Team 2021; Team 2021). Gene enrichment analysis was done with fgsea v1.18 (Korotkevich et al. 2021) with gene sets downloaded from MSigDB and KEGG pathway visualization done via pathview v1.32 (Kanehisa et al. 2021; Luo and Brouwer 2013). Other plots were produced using ggplot2 v3.3.5 and scatterplot3d v0.3-41 (Ligges and Maechler 2003). The RNA-Seq dataset has been deposited in NCBI under accession number GSE189320.

Question: What does the source list for N[C@@H]1[C@H]2CN(c3nc4c(cc3F)c(=O)c(C(=O)O)cn4-c3ccc(F)cc3F)C[C@@H]12 [TVX, Trovafloxacin]?
Answer: effect on cytokine production (IL-6 [1]; high doses (>25 μM)): inhibitory effects; IL-6 induction (IL-6 [1]; low dose 3.125 μM and 6.25 μM): 1.5 fold; IC50 (IL-6 [1]; Homo sapiens, LPS, 48 hr): 16.2 µM; IL-6 decline after 24 h (IL-6 [2]): 57.3%; pro-inflammatory cytokine and chemokine mRNA expression (iHeps; LPS-treated co-cultures): significantly increased; FADD upregulation (iHeps; cTVX+, 25 µM): 1.7 fold; TNFα transcription increase (iHeps; cTVX+, 25 µM): 2.3 fold; cIAP-2 upregulation (iHeps; cTVX+, 25 µM): 3 fold; caspase 3 upregulation (iHeps; cTVX+, 25 µM): 1.8 fold; IL-8 transcription increase (iHeps; co-culture, cTVX+ vs. cVeh+, 25 µM): 3.2 fold; TNFα transcription (iHeps; mTVX+ compared to mVeh+, 25 µM): 0.9 fold; cIAP-2 upregulation (iHeps; mTVX+, 25 µM): 1.5 fold; IL-8 transcription increase (iHeps; mono-culture, mTVX+ vs. mVeh+, 25 µM): 1.3 fold; IL-6 transcription in iHeps (iHeps; regardless of culture conditions, result in words): slightly decreased
